Assay: xn = mol fraction of the nth substance listed
Details: 101 kPa, Liquid, Vibrating tube method

C=C[Si](C)(C)O[Si](C)(C)C=C [1,3-diethenyl-1,1,3,3-tetramethyldisiloxane] + O=[N+]([O-])c1ccccc1
mass density [kg/m3]
Details | 283.15 K | 288.15 K | 293.15 K | 298.15 K | 303.15 K
x1 = 0.05 | 1176.35 | 1171.43 | 1166.52 | 1161.69 | 1156.82
x1 = 0.1 | 1142.71 | 1137.83 | 1132.97 | 1128.22 | 1123.45
x1 = 0.15 | 1111.83 | 1106.98 | 1102.13 | 1097.43 | 1092.67
x1 = 0.2 | 1083.35 | 1078.52 | 1073.67 | 1068.96 | 1064.2
x1 = 0.25 | 1057.23 | 1052.41 | 1047.57 | 1042.87 | 1038.12
x1 = 0.3 | 1033.06 | 1028.23 | 1023.4 | 1018.69 | 1013.92
x1 = 0.3508 | 1010.38 | 1005.54 | 1000.74 | 996.01 | 991.23
x1 = 0.4001 | 989.98 | 985.14 | 980.32 | 975.57 | 970.77
x1 = 0.4501 | 970.75 | 965.91 | 961.08 | 956.32 | 951.52
x1 = 0.4999 | 952.93 | 948.07 | 943.22 | 938.45 | 933.61
x1 = 0.55 | 936.17 | 931.3 | 926.44 | 921.66 | 916.81
x1 = 0.6001 | 920.46 | 915.57 | 910.7 | 905.91 | 901.03
x1 = 0.6487 | 906.15 | 901.26 | 896.39 | 891.58 | 886.71
x1 = 0.6999 | 891.87 | 887 | 882.12 | 877.3 | 872.42
x1 = 0.7499 | 878.8 | 873.92 | 869.03 | 864.21 | 859.31
x1 = 0.7999 | 866.41 | 861.51 | 856.6 | 851.77 | 846.84
x1 = 0.8497 | 854.66 | 849.77 | 844.87 | 840.06 | 835.12
x1 = 0.9 | 843.43 | 838.53 | 833.62 | 828.8 | 823.86
x1 = 0.9499 | 832.79 | 827.88 | 822.98 | 818.14 | 813.2
x1 = 1 | 822.64 | 817.73 | 812.82 | 807.98 | 803.03

Source: the NIST ThermoML archive (doi:10.1016/j.jct.2013.12.025)
